Active and inactive are the calls of the source.
Tests used:
Streptokinase A = molecular target: T1, Streptokinase A (Streptococcus pyogenes serotype M1, UniProt P10520); assay: viability-normalized secreted streptokinase activity reduction – plasminogen activation absorbance, OD405, dose response (AID 1914); type: functional, Streptococcus pyogenes M1 GAS;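 further: secreted streptokinase activity via plasminogen activation per viability signal from cell pellet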
T1 sequence (P10520 whole entry): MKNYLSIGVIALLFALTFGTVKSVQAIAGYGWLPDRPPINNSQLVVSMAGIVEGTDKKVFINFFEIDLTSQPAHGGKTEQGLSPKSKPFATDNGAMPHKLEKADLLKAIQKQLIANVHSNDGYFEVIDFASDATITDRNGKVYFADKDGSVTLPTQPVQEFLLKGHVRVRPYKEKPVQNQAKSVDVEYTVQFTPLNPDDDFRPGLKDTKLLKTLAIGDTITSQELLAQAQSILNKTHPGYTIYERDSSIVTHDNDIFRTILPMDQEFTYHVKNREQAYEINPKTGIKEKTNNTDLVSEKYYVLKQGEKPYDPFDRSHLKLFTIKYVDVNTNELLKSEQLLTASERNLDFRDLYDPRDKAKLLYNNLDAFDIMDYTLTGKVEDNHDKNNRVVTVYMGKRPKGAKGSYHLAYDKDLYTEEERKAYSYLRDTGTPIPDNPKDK

Streptococcus = assay: GAS UMAA2166 growth inhibition – luminescence, BacTiterGlo, counter-screen for streptokinase expression inhibitor project, dose response (AID 1915); type: functional, organism-based;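 further: potency for reduction of bacterial viability or growth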
[1] = molecular target: T2, Heat shock factor protein 1 (Mus musculus, UniProt P38532); assay: enhancement of HSF1-driven luciferase signal – cell-based, NIH3T3, luminescence, dose retest, confirmation (AID 435004); type: functional;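 further: stress induced by proteasome inhibitor MG132 added 30 min after compound; luciferase reporter driven by HSF1 response element in NIH3T3 cells; actives raise luminescence as potentiators of the MG132 stress response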
T2 sequence (P38532 whole entry): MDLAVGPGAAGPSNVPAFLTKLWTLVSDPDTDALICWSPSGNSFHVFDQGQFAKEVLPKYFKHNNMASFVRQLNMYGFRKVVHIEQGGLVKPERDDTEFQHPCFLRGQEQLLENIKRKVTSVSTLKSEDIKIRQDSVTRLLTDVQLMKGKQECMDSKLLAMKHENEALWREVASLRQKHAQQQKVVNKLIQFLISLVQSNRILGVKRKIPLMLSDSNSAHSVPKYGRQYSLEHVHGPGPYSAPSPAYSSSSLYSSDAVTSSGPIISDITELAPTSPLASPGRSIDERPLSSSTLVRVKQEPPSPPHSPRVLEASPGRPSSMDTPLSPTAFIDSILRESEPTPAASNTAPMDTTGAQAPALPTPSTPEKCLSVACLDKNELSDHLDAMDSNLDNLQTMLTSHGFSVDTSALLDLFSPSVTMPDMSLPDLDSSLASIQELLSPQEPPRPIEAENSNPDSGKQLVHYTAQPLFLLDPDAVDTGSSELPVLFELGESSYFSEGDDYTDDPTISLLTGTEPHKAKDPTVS

[2] = viability loss in HepG2 hepatoma cells – cell-based, ATP luminescence, cherry-pick, activator set 2, cytotoxicity control, dose response (AID 1053143); type: functional
Major prion protein = Major prion protein (Homo sapiens, UniProt P04156); type: functional, cell-based
CHO = CHO cell viability loss, potency – luminescence, cytotoxicity control for TLR9-MyD88 binding inhibitor project, dose response (AID 588339); type: functional, cell-based, hamster; conditions: Cricetulus griseus;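 further: CHO cells stably coexpressing TLR9 and MyD88 fusions from primary screen; compound exposure lasted 48 hours before viability readout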
Beta Lactamase = Beta Lactamase (Pseudomonas aeruginosa, UniProt Q932Y6); assay: BLA reporter interference, concentration series – BLA reporter cells, FRET fluorescence, artefact control for TLR9-MyD88 binding inhibitor project, dose response (AID 588341); type: cell-based;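 further: cell based assay in CHO-K1 cells stably expressing beta-lactamase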
[3] = molecular target: Photoreceptor-specific nuclear receptor (Homo sapiens, UniProt Q9Y5X4); type: functional, cell-based;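 further: CHO-S cells with Gal4-NCOR and VP16-NR2E3 two-hybrid luciferase reporter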
[4] = reduced cellular PGC1a acetyl-lysine signal – cell-based, cherry-picked samples, dose response (AID 720514); type: functional;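 further: potency may reflect raised or lowered acetylation signal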
[5] = Late stage assay provider counterscreen for TLR9 inhibitors: absorbance-based cell-based MTT cytotoxicity assay.; type: functional
HEK293 = assay: viability loss in HEK293T cells – cell-based, ATP luminescence, cherry-pick samples, cytotoxicity control, dose response (AID 687005); type: functional; conditions: Homo sapiens;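 further: cells exposed to compound for 48 hours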
[6] = HEK293 Cytotoxicity Assay Measured in Cell-Based System Using Plate Reader - 7071-01_Inhibitor_Dose_CherryPick_Activity_Set2.; type: functional
[7] = molecular target: Potassium channel subfamily K member 9 (Homo sapiens, UniProt Q9NPC2); assay: KCNK9 flux blockade, concentration-response – cell-based, FluxOR thallium flux, selectivity assay for TASK1 inhibitor project, SAR follow-up (AID 652211); type: functional;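 further: potency is for inhibitors of the channel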
[8] = molecular target: Potassium channel subfamily K member 3 (Homo sapiens, UniProt O14649); assay: inhibition of human KCNK3 channel flux – CHO cells, FluxOR thallium flux, SAR follow-up (AID 652212); type: functional
[9] = Late stage assay provider results from the probe development effort to identify selective inhibitors of heat shock protein 90 (HSP90): Absorbance-based cell proliferation assay in SKBR3 cells.; type: functional; conditions: SK-BR-3
[10] = Late stage assay provider results from the probe development effort to identify selective inhibitors of heat shock protein 90 (HSP90): Absorbance-based cell proliferation assay in MCF7 cells.; type: functional
[11] = inhibitors acting on PAX2 in cells – cell-based, plate reader, dry powder samples, selectivity assay for PAX8 inhibitor project, dose response (AID 743048); type: functional;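 further: HEK293 cells carrying a WT1 promoter luciferase reporter driven by expressed Pax2; potency is for inhibition of Pax2 driven reporter signal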
[12] = COV362 cell viability loss – plate reader, dry powder, SA12, cytotoxicity control for PAX8 inhibitor project, dose response (AID 743144); type: functional, cell-based
[13] = toxicity toward immortalized ovarian surface epithelium – cell-based, plate reader, dry powder samples, cytotoxicity control for PAX8 inhibitor project, dose response (AID 743045); type: functional
[14] = OVCAR-3 cell viability loss – plate reader, dry powder samples, PAX8 inhibitor project, dose response (AID 743044); type: functional, cell-based
[15] = PAX5 cellular inhibition readout – cell-based, plate reader, dry powder samples, selectivity assay for PAX8 inhibitor project, dose response (AID 743047); type: functional;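 further: HEK293 cells carrying a Pax5 driven CD19 promoter luciferase reporter; potency of inhibitors that lower reporter luminescence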
[16] = IGROV1 cell killing – plate reader, dry powder samples, PAX8 inhibitor project, dose response (AID 743043); type: functional, cell-based; conditions: IGROV-1
[17] = OVCAR4 cell viability loss – plate reader, dry powder, SA11, cytotoxicity control for PAX8 inhibitor project, dose response (AID 743150); type: functional, cell-based; conditions: OVCAR-4
[18] = COV434 cell viability loss – plate reader, dry powder, SA7, cytotoxicity control for PAX8 inhibitor project, dose response (AID 743145); type: functional, cell-based
[19] = OV-90 cell viability loss – plate reader, dry powder, SA8, PAX8 inhibitor project, dose response (AID 743149); type: functional, cell-based
[20] = PAX8-dependent cell viability loss – plate reader, dry powder, dose response (AID 743049); type: functional, cell-based

Cn1nnc(-c2ccc(OCc3ccccc3F)cc2)n1
EC50 (Streptokinase A): > 150 µM (not active)
EC50 (Streptococcus): > 150 µM (not active)
EC50 [1]: > 260 µM (inactive)
AC50 [2]: 26 µM (active)

O=C(O)CCC(=O)NNC(=O)COc1ccc2ccccc2c1Br
IC50 (Major prion protein): 4.45 µM (active)
IC50 (cells): > 138 µM (inactive)

COc1ccc(C[C@@H]2OC3(C=CC(=O)C=C3)O[C@H]2Cc2ccc(OC)cc2)cc1
IC50 (CHO): 0.597 µM (active)
IC50 (Beta Lactamase): 17.5 µM (inactive)
IC50 [3]: 0.149 µM (active)
AC50 [4]: 0.756 µM (active)
CC50 [5]: 0.48 µM (active)

COc1ccc(NC(=O)Nc2ccc3c(c2)C(=O)N([C@H](C)CO)C[C@H](C)[C@H](CN(C)C(=O)Cc2ccccc2)OCCCC[C@H](C)O3)cc1
AC50 (HEK293): 25.4 µM (active)
AC50 [6]: 25.4 µM (active)

CCOc1ccccc1NC(=O)c1cccc(NC(=O)c2cccc(C(F)(F)F)c2)c1
IC50 [7]: 1.38 µM (active)
IC50 [8]: 0.232 µM (active)

COc1c[nH]c(C(=O)Nc2ccc(C(C)C)cc2)cc1=O
IC50 [9]: > 100 µM (inactive)
IC50 [10]: > 100 µM (inactive)

N#C[C@@H]1[C@@H](c2ccc(C#Cc3ccccc3F)cc2)[C@@H](CO)N1C(=O)C1CCCC1
AC50 [11]: 16.5 µM (active)
AC50 [12]: 48.5 µM (active)
AC50 [13]: 27 µM (active)
AC50 [14]: 29.7 µM (active)
AC50 [15]: 18.1 µM (active)
AC50 [16]: 47.3 µM (active)
AC50 [17]: 44.3 µM (active)
AC50 [18]: 10.9 µM (active)
AC50 [19]: 35.3 µM (active)
AC50 [20]: 11.9 µM (active)
